# Test results: US7829533B2, “Cyclosporin analog formulations” (Isotechnika Inc., priority 2001, dated 2010)
# Assay: Toxicokinetic study in the rabbit model (serum creatinine, hematology, organ examination)
# Experimental: On Days 1 and 7, blood samples were collected prior to drug administration and at 0.5, 1, 2, 4, 8, 12, 18, and 24 hours post-dose to generate a pharmacokinetic profile. Other evaluated parameters included clinical observations, body weight, food consumption, hematology, clinical chemistry, gross pathology, and histopathological examination of selected tissues/organs.
compound,measurement,setting,value
C=C/C=C/C[C@@H](C)[C@@H](O)[C@H]1C(=O)N[C@@H](CC)C(=O)N(C)CC(=O)N(C)[C@@H](CC(C)C)C(=O)N[C@@H](C(C)C)C(=O)N(C)[C@@H](CC(C)C)C(=O)N[C@@H](C)C(=O)N[C@H](C)C(=O)N(C)[C@@H](CC(C)C)C(=O)N(C)[C@@H](CC(C)C)C(=O)N(C)[C@@H](C(C)C)C(=O)N1C [ISATX247],Examination of organs: spermatogenesis,"male rabbits, 15 mg/kg",decrease in spermatogenesis
same,Examination of organs,"rabbits, 5 mg/kg",no significant abnormalities
same,Examination of organs,"rabbits, 10 mg/kg",no significant abnormalities
same,Interstitial fibrosis in the kidneys,"rabbits, 10 mg/kg cyclosporine A, 5 or 10 mg/kg ISATx247",no evidence of interstitial fibrosis
same,Increase in serum creatinine levels,"rabbits, 15 mg/kg/day",did not result in any significant increase
same,Changes in hematological parameters,"rabbits, 30-day study",No significant changes
